Laboratory results taken from patent publication US20140371188A1, “COMPOSITIONS AND METHODS FOR INHIBITING MUSCLE ATROPHY AND INDUCING MUSCLE HYPERTROPHY” (UNIVERSITY OF IOWA RESEARCH FOUNDATION, priority 2011, published 2014).

Tests used:
[1] = test system: tibialis anterior (TA) muscle; assay: Ursolic acid i.p., recovery from immobilization-induced skeletal muscle atrophy after remobilization; assay type: in vivo, mouse; settings: TA immobilized 7 days, then remobilized; 200 mg/kg i.p. twice daily started at remobilization; vs vehicle
[2] = general statement, no test described; cited from earlier work
[3] = test system: immobilized tibialis anterior (TA) muscle; assay: Ursolic acid i.p., immobilization-induced skeletal muscle atrophy (TA weight, fiber diameter); assay type: in vivo, C57BL/6 mice; settings: 200 mg/kg i.p. twice a day from day 0; TA immobilized day 2; harvest day 8; vs vehicle (corn oil)
Experimental: (§1) (A-E) Beginning on day 0, 6-8 wk old male C57BL/6 mice were given i.p. injections of ursolic acid (200 mg/kg) or an equal volume of vehicle (corn oil) twice a day. On day 2, the left tibialis anterior (TA) muscle of each mouse was immobilized. During immobilization, vehicle or ursolic acid continued to be administered via i.p. injection twice daily, and the right TA remained mobile and served as an intrasubject control. (A) On day 5, mice were euthanized and bilateral TA muscles were harvested. mRNA levels were determined with qPCR. In each mouse, mRNA levels from the immobile TA were normalized to values from the mobile TA, which were set at one. Data are means±SEM from ≧6 mice per condition. * P<0.05. (B-E) On day 8, bilateral TA muscles were harvested and weighed. (B) Effect of ursolic acid on skeletal muscle weight. In each mouse, the left (immobile) TA weight was normalized to the right (mobile) TA weight. Data are means±SEM from 10 mice per condition; ***P<0.001 by unpaired t-test. (C-E) Effect of ursolic acid on skeletal muscle fiber diameter. (C) Data are mean fiber diameters ±SEM from 10 immobilized TA muscles per condition; ***P<0.0001 by unpaired t-test. (D) Representative cross-sections of muscle fibers immunostained with anti-laminin antibody. (E) Data are fiber size distributions of >3000 fibers from 10 immobilized TA muscles per condition. […]

[4] = test system: quadriceps muscle mRNAs (IGF-I, Ar, Ppargc1a, Tfam, Nos1, Vegfa, Hk2); assay: Diet containing 0.14% ursolic acid, qPCR of quadriceps muscle mRNAs; assay type: in vivo, C57BL/6 mice; settings: diet containing 0.14% ursolic acid for 6 weeks, vs control diet
Experimental: (§2) (A) C57BL/6 mice were fed diets lacking or containing 0.14% ursolic acid for 6 weeks before quadriceps muscles were harvested for qPCR analysis of the indicated mRNAs. mRNA levels in ursolic acid-treated mice were normalized to mRNA levels in control mice, which were set at one. Data are means±SEM from 10 mice per condition; *P<0.05, **P<0.01. (B) Cultured C2C12 myoblasts were serum-starved for 6 hours, and then incubated for 2 minutes in the absence or presence of ursolic acid (10 μM) and/or recombinant human growth hormone (100 ng/ml), as indicated. Total cellular protein extracts were subjected to immunoprecipitation with anti-GHR antibody, followed by immunoblot analysis with anti-phospho-tyrosine or anti-GHR antibodies to assess phospho-GHR and total GHR, respectively.
Exon Arrays and Quantitative Real-Time RT-PCR (qPCR) in Muscle and Myotubes—Extraction of skeletal muscle RNA and RNA hybridizations to Mouse Exon 1.0 ST arrays (Affymetrix) were performed as described previously (Ebert, S. M., et al. (2010) Mol. Endocrinol. 24, 790-799). Exon expression arrays examining the effects of Gadd45a overexpression, fasting and muscle denervation in TA muscles of C57BL/6 mice were described previously (Banduseela, V. C., et al. (2009) Physiol. Genomics 39, 141-159; Welle, S., et al. (2004) Exp. Gerontol. 39, 369-377) and can be found in the NCBI Gene Expression Omnibus under GEO Series accession numbers GSE39196, GSE20103 and GSE39195, respectively. Myotube RNA was extracted using TRIzol solution (Invitrogen), and then purified using the RNeasy kit and RNase Free DNase Set (Qiagen). qPCR analyses of mRNAs encoding mouse ATF4, Gadd45a, Bax, caspase-3 (Casp3), androgen receptor (Ar), thyroid hormone receptor-α (Thra), growth hormone receptor (Ghr), hexokinase 2 (Hk2), Suclg1, Coxl1, Tfam, Nos1, MuRF1 (Trim63), atrogin-1 (Fbxo32), cathepsin L (Ctsl), Bnip3, Cdkn1a, PGC-1α (Ppargc1a), GLUT4 (S1c2a4), LC3a (Mapl1c3a) and Vegfa were performed using TaqMan Gene Expression Assays (Applied Biosystems). For qPCR studies, first strand cDNA was synthesized in a 20 μl reaction that contained 2 μg of RNA, random hexamer primers and components of the High Capacity cDNA reverse transcription kit (Applied Biosystems). qPCR was carried out using a 7500 Fast Real-Time PCR System (Applied Biosystems). All qPCR reactions were performed in triplicate and the cycle threshold (Ct) values were averaged to give the final results. To analyze the data, the ΔCt method was used, with level of 36B4 mRNA serving as the invariant control.
To test this, C57BL/6 mice were fed diets lacking or containing 0.14% ursolic acid for 6 weeks before quadriceps muscles were harvested for qPCR analysis. […] These effects of ursolic acid are consistent with ursolic acid's capacity to decrease Gadd45a and Cdkn1a expression.

Cdkn1a mRNA = assay: Ursolic acid i.p., Cdkn1a mRNA by qPCR in immobilized TA muscle; assay type: in vivo, C57BL/6 mice; settings: ursolic acid 200 mg/kg i.p. twice a day from day 0; TA immobilized day 2; harvest day 5; vs vehicle (corn oil)
Experimental: as §1, with “diameter.” for “diameter. (C) Data are mean fiber diameters ±SEM from 10 immobilized TA muscles per condition; ***P<0.0001 by unpaired t-test. (D) Representative cross-sections of muscle fibers immunostained with anti-laminin antibody. (E) Data are fiber size distributions of >3000 fibers from 10 immobilized TA muscles per condition.”
(§3) Exon Arrays and Quantitative Real-Time RT-PCR (qPCR) in Muscle and Myotubes—Extraction of skeletal muscle RNA and RNA hybridizations to Mouse Exon 1.0 ST arrays (Affymetrix) were performed as described previously (Ebert, S. M., et al. (2010) Mol. Endocrinol. 24, 790-799). […]

Gadd45a mRNA = assay: Ursolic acid i.p., Gadd45a mRNA by qPCR in immobilized TA muscle; assay type: in vivo, C57BL/6 mice; settings: ursolic acid 200 mg/kg i.p. twice a day from day 0; TA immobilized day 2; harvest day 5; vs vehicle (corn oil)
Experimental: as §1, with “diameter.” for “diameter. (C) Data are mean fiber diameters ±SEM from 10 immobilized TA muscles per condition; ***P<0.0001 by unpaired t-test. (D) Representative cross-sections of muscle fibers immunostained with anti-laminin antibody. (E) Data are fiber size distributions of >3000 fibers from 10 immobilized TA muscles per condition.”
as §3

[5] = molecular target: T1, growth hormone receptor (GHR) (Mus musculus, UniProt P16882); assay: GHR phosphorylation in serum-starved C2C12 myoblasts (anti-GHR immunoprecipitation, phospho-tyrosine immunoblot); assay type: cell-based; settings: ursolic acid 10 μM, 2 minutes; C2C12 myoblasts serum-starved 6 hours; absence or presence of recombinant human growth hormone 100 ng/ml
T1 construct: endogenous in cells; host or cells: C2C12 mouse myoblasts (ATCC CRL-1772), serum-starved for 6 hours
T1 sequence (P16882 25-650): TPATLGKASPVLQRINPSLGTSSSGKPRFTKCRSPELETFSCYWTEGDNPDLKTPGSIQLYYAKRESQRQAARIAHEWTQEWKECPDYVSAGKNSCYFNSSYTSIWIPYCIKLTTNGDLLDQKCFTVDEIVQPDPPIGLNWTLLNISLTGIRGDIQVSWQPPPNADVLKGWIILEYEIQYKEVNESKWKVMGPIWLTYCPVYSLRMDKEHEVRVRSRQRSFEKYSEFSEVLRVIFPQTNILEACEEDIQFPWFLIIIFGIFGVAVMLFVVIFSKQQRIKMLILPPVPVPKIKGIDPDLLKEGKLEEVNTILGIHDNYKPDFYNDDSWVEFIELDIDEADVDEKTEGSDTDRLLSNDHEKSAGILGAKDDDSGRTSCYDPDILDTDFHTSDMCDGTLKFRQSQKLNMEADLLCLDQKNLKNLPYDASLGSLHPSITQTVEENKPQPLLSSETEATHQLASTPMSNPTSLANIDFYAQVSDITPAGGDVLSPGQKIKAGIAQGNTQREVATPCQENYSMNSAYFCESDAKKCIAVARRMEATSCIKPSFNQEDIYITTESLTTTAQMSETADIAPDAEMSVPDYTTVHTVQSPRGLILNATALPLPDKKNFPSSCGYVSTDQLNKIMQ
Experimental: as §2
C2C12 Myotube Culture and Infection—Mouse C2C12 myoblasts were obtained from ATCC (CRL-1772), and maintained at 37° C. and 5% CO2 in Dulbecco's modified Eagle's medium (DMEM) (ATCC #30-2002) containing antibiotics (100 units/ml penicillin, 100 μg/ml streptomycin sulfate) and 10% (v/v) fetal bovine serum (FBS). Myoblasts were set up for experiments on day 0 in 6-well plates at a density of 2.5×10^5 cells/well. On day 2, differentiation was induced by replacing 10% FBS with 2% horse serum. On day 7, cells were rinsed once with PBS, and then 1 ml DMEM containing adenovirus was added to each well. […]

3-β-hydroxy-urs-12-en-28-oic acid [ursolic acid]
recovery of skeletal muscle mass after remobilization [1]: significantly enhanced the recovery of skeletal muscle mass | water solubility [2]: highly water-insoluble | TA muscle weight, left (immobile) normalized to right (mobile) [3]: reduced the loss of muscle mass | size (diameter) of skeletal muscle fibers in immobilized TA muscles [3]: increased the size of skeletal muscle fibers | Hk2 mRNA in quadriceps [4]: increased | IGF-I mRNA in quadriceps [4]: increased | Nos1 mRNA in quadriceps [4]: increased | PGC-1α (Ppargc1a) mRNA in quadriceps [4]: increased | Tfam mRNA in quadriceps [4]: increased | Vegfa mRNA in quadriceps [4]: increased | androgen receptor (Ar) mRNA in quadriceps [4]: increased | Cdkn1a mRNA, immobile TA normalized to mobile TA (Cdkn1a mRNA): prevented induction | Gadd45a mRNA, immobile TA normalized to mobile TA (Gadd45a mRNA): prevented induction | GHR phosphorylation (phospho-GHR vs total GHR) [5]: increased GHR phosphorylation
